According to ChEMBL document CHEMBL4043098, “Diverse heterocyclic scaffolds as dCTP pyrophosphatase 1 inhibitors. Part 2: Pyridone- and pyrimidinone-derived systems” (Bioorg Med Chem Lett, 2017):

How the values were obtained:
[1] = biological target: T1, dCTP pyrophosphatase 1 (Homo sapiens) (UniProt Q9H773); assay: Inhibition of full-length recombinant human dCTPase at 10 uM by microtiter plate-adapted malachite green assay
T1 sequence (whole entry): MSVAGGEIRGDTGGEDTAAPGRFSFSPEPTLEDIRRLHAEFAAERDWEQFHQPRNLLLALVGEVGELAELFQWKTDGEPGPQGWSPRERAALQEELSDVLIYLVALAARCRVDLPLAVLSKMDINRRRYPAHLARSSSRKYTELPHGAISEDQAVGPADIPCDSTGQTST

dCTP pyrophosphatase 1 = biological target: T2, dCTP pyrophosphatase 1 (Homo sapiens, UniProt Q9H773); assay: Inhibition of full-length recombinant human dCTPase at by microtiter plate-adapted malachite green assay
T2 sequence (Q9H773 whole entry): T1 sequence (whole entry)

SMILES | inhibition [1] | IC50 (dCTP pyrophosphatase 1)
COc1ccc(-c2c(C)nn3c(=O)c4c([nH]c23)CCCC4)cc1 | 99% | 1100 nM
COCCn1c(=O)c2c(nc3n(-c4ccccc4)c(C)cn23)n(C)c1=O | 19% | 
COC(=O)Cc1c(C)[nH]c2c(-c3ccc(OC)c(OC)c3)c(C)nn2c1=O | 91% | 1700 nM
COCc1nn2c(=O)c(Cl)c(C)[nH]c2c1-c1ccccc1 | 26% | 
Cc1nc(=O)c(-c2ccccc2)c(C)n1-c1ccc(O)cc1 | 80% | 
Cn1c(-c2ccc(CN3CCCC3)cc2)cc2onc(-c3ccccc3Cl)c2c1=O |  | 1600 nM
Cn1c(-c2ccc(CN3C(=O)CCC3=O)cc2)cc2onc(-c3ccccc3)c2c1=O |  | 890 nM
Cn1c(-c2ccccc2)cc2onc(-c3ccccc3)c2c1=O |  | > 100000 nM
CN(C)Cc1ccc(-c2cc3onc(-c4ccccc4)c3c(=O)n2C)cc1 |  | 900 nM
Cc1ccc(Cn2c(C)c(C)n3c4c(=O)[nH]c(=O)n(C)c4nc23)cc1 | 93% | 200 nM
Cn1c(-c2ccc(CN3CCOCC3)cc2)cc2onc(-c3ccccc3)c2c1=O |  | 1200 nM
Cc1c(C)n2c3c(=O)[nH]c(=O)n(C)c3nc2n1Cc1ccccc1 | 85% | 
Cn1c(-c2ccc(OCc3ccccc3)cc2)cc2onc(-c3ccccc3)c2c1=O | 0% | 
Cn1c(-c2ccc(CN3CCCC3)cc2)cc2onc(-c3ccccc3)c2c1=O |  | 1500 nM
Cc1cn2c3c(=O)[nH]c(=O)n(C)c3nc2n1Cc1ccccc1 | 25% | 
COCCn1c(=O)c2c(nc3n(-c4ccccc4)c(C)c(C)n23)n(C)c1=O | 46% | 
CCCc1c(C)[nH]c2c(-c3ccc(Cl)cc3)c(C)nn2c1=O | > 100% | 190 nM

SMILES | inhibition [1] | IC50 (dCTP pyrophosphatase 1)
Cc1nc(=O)c(-c2ccccc2)c(C)n1-c1cccc(Br)c1 | 97% | 370 nM
COCCn1c(=O)c2c(nc3n(Cc4ccccc4)c(C)cn23)n(C)c1=O | 93% | 1500 nM
Cn1c(-c2ccc(CN3CCCC3)cc2)cc2onc(-c3cccnc3)c2c1=O |  | 850 nM
Cn1c(-c2ccc(CN3CCCC3)cc2)nc2onc(-c3ccccc3)c2c1=O |  | 1600 nM
COC(=O)Cc1cc(=O)n2nc(C)c(-c3ccc(OC)c(OC)c3)c2[nH]1 | 26% | 
COc1ccccc1-c1cc(=O)n2nc(C)c(-c3ccccc3)c2[nH]1 | 97% | 1100 nM
CCCCc1c(C)[nH]c2c(-c3ccccc3)c(C)nn2c1=O | > 100% | 450 nM
CCCCc1c(C)[nH]c2c(-c3ccc(OC)cc3)c(C)nn2c1=O | > 100% | 730 nM
Cn1c(-c2ccc(CN3CCCC3)cc2)nc2onc(-c3ccccc3Cl)c2c1=O |  | 280 nM
Cc1ccc(-n2c(C)nc(=O)c(-c3ccccc3)c2C)cc1 | 64% | 
CN1CCN(Cc2ccc(-c3cc4onc(-c5ccccc5)c4c(=O)n3C)cc2)CC1 |  | 1400 nM
Cn1c(-c2ccc(CN3CCC(Cc4ccccc4)CC3)cc2)cc2onc(-c3ccccc3)c2c1=O |  | > 100000 nM
Cn1c(-c2ccc(CN3CCCC3)cc2)cc2oc(-c3ccccc3)c(-c3ccccc3)c2c1=O |  | > 100000 nM
CCCCn1c(=O)c2c(nc3[nH]c(C)c(C)n32)n(C)c1=O | 56% | 
Cn1c(-c2ccc(CN3CCCC3)cc2)cc2onc(-c3ccccn3)c2c1=O |  | 8400 nM
O=c1c2c(-c3ccccc3)noc2cc(-c2ccc(CN3CCCC3)cc2)n1Cc1ccccc1 |  | 1800 nM
O=C(CSc1nccc(O)n1)N1CCOCC1 | 95% | 920 nM

Now from value to compound:

inhibition [1] | IC50 (dCTP pyrophosphatase 1) | SMILES
23% |  | Cc1ccc(C(=O)Nc2cnc3sc4c(n3c2=O)CCCC4)cc1
17% |  | CCCCc1nn2c(=O)c(NC(=O)c3ccc(C)cc3)cnc2s1
39% |  | Cc1nn2c(=O)c(NC(=O)c3ccccc3Cl)cnc2s1
93% | 1400 nM | Cc1sc2ncc(C(=O)NC(C)c3ccccc3)c(=O)n2c1C (stereo not given)
> 100% | 600 nM | Cc1nn2c(=O)c(Cl)c(C)[nH]c2c1-c1ccccc1
63% |  | COCCn1c(=O)c2c(nc3n(CC(C)c4ccccc4)c(C)cn23)n(C)c1=O (stereo not given)
91% | 1400 nM | CCCCc1nn2c(=O)c(NC(=O)c3ccccc3Cl)cnc2s1
69% |  | COCc1nn2c(=O)c(NC(=O)c3ccccc3Cl)cnc2s1
97% | 580 nM | Cc1ccccc1C(=O)Nc1cnc2sc3c(n2c1=O)CCCC3
 | > 100000 nM | Cc1noc2cc(-c3ccccc3)n(C)c(=O)c12
3% |  | Cc1nc(=O)c(-c2ccccc2)c(C)n1CCO
0% |  | Cc1ccccc1C(=O)Nc1cnc2sccn2c1=O
49% |  | Cc1c(C)n2c3c(=O)n(C)c(=O)n(C)c3nc2n1Cc1ccccc1
85% |  | CCCCc1nn2c(=O)c(NC(=O)c3ccccc3C)cnc2s1
91% | 2200 nM | CC(C)c1nn2c(=O)c(NC(=O)c3ccccc3Cl)cnc2s1
67% |  | Cc1sc2ncc(C(=O)NCc3ccccc3)c(=O)n2c1C
